The values below come from ChEMBL document CHEMBL1201862, “PubChem BioAssay data set” (2004).

Structures are written as SMILES.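 Tested at 5 concentrations; 48 h exposure; 96-well plates; endpoints linearly interpolated, else capped at highest concentration. GI50: concentration for 50% inhibition of growth.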 The source made the active and inactive calls. No stated cut-off is given here; in the data, active = GI50 up to about 1.1 µM and inactive = higher. Some results are limits rather than exact numbers.

Test systems include IGROV-1; A549; K562; SF-268; NCI-H460; SR; SF-295; COLO 205; SF-539; BT-549; LXFL 529; M14; MOLT-4; SK-MEL-5; HOP-92; UO-31; UACC-257; LOX IMVI; OVCAR-5; HL-60.
What all share (assay): NCI-60 cell line screen, 48 h

`COc1cc(C2c3cc4c(cc3[C@@H](Nc3ccc(F)cc3)C3COC(=O)[C@H]23)OCO4)cc(OC)c1O` (some centres undefined): the GI50 with IGROV-1 is 5.31 µM (inactive); in the assay on A549, 0.224 µM (active); with K562, 3.87 µM (inactive); in the assay with SF-268 it was 3.17 µM (inactive); in the assay with NCI-H460 it was 0.0468 µM (active); in the assay with SR, 0.106 µM (active). For the same compound, the GI50 in the assay with SF-295 was 0.834 µM (active); in the assay with COLO 205 it was 2.03 µM (inactive); in the assay on SF-539 it was 1.86 µM (inactive); in the assay with BT-549 it was 2.61 µM (inactive); in the assay with LXFL 529, 6.67 µM (inactive); in the assay on M14 it was 2.56 µM (inactive). In addition, the GI50 in the assay with MOLT-4 was 0.0535 µM (active); with SK-MEL-5, 1.78 µM (inactive); in the assay on HOP-92, 2.91 µM (inactive); in the assay with UO-31, 1.65 µM (inactive); in the assay with UACC-257 it was 6.05 µM (inactive); with LOX IMVI, 0.753 µM (active). Besides, in the assay on OVCAR-5, the GI50 is 5.3 µM (inactive).
Take `Cc1ccc(NC(=O)CCc2nnc3s/c(=C\C=C\c4ccccc4)c(=O)n23)cc1`: the GI50 in the assay on IGROV-1 is > 100 µM (inactive); in the assay with A549, > 100 µM (inactive); with K562 it was > 100 µM (inactive); with SF-268, 59.3 µM (inactive); with NCI-H460, > 83.6 µM (inactive); in the assay on SR, 7.29 µM (inactive). Also, the GI50 is > 100 µM (inactive) in the assay on SF-295; 56 µM (inactive) in the assay on HL-60; > 100 µM (inactive) with COLO 205; 55.3 µM (inactive) in the assay with SF-539; > 63.8 µM (inactive) in the assay on BT-549; 60.7 µM (inactive) with LXFL 529. Besides, the GI50 with M14 was > 100 µM (inactive); in the assay with MOLT-4, 30 µM (inactive); in the assay on SK-MEL-5, > 95.5 µM (inactive); in the assay with HOP-92 it was > 83 µM (inactive); with UO-31 it was > 100 µM (inactive); in the assay with UACC-257, > 95.7 µM (inactive). In addition, the GI50 in the assay on LOX IMVI is 27 µM (inactive); with OVCAR-5, > 100 µM (inactive).
Consider `Cc1ccc(C(=O)OCC(C)C)cc1/N=N/N(C)C`, for which the GI50 in the assay with IGROV-1 was > 100 µM (inactive); in the assay with A549 it was > 79.4 µM (inactive); with K562 it was > 100 µM (inactive); in the assay on SF-268, 42.9 µM (inactive); in the assay on NCI-H460, > 100 µM (inactive); in the assay on SR, 70.5 µM (inactive). Further, the GI50 with SF-295 is 27 µM (inactive); in the assay with HL-60 it was 34.2 µM (inactive); with COLO 205, > 100 µM (inactive); in the assay on SF-539 it was > 86.7 µM (inactive); with BT-549, 79.6 µM (inactive); in the assay on LXFL 529, > 100 µM (inactive). The GI50 in the assay with M14 was 67 µM (inactive); with MOLT-4 it was 59.7 µM (inactive); with SK-MEL-5 it was > 60.4 µM (inactive); in the assay with HOP-92, > 65 µM (inactive); in the assay with UO-31, 41.3 µM (inactive); in the assay with UACC-257, 26 µM (inactive). Besides, the GI50 is 31.1 µM (inactive) in the assay with LOX IMVI and > 100 µM (inactive) with OVCAR-5.
With `NC(=O)/C=C/c1c[nH]c2nccnc12`, the GI50 was 3.83 µM (inactive) in the assay on IGROV-1; 4.41 µM (inactive) in the assay on A549; 0.966 µM (active) in the assay with K562; 2.05 µM (inactive) in the assay on SF-268; 3.7 µM (inactive) in the assay with NCI-H460; 1.66 µM (inactive) with SR. In addition, the GI50 with SF-295 was 3.26 µM (inactive); with HL-60 it was 2.26 µM (inactive); with COLO 205, 1.67 µM (inactive); in the assay on SF-539 it was 2.24 µM (inactive); in the assay with BT-549 it was 2.2 µM (inactive); in the assay with LXFL 529 it was 0.103 µM (active). Also, the GI50 in the assay on M14 was 3.97 µM (inactive); with MOLT-4, 0.641 µM (active); in the assay on SK-MEL-5, 2.25 µM (inactive); in the assay with HOP-92 it was 3.52 µM (inactive); in the assay with UO-31, 0.735 µM (active); with UACC-257, 4.11 µM (inactive). Also, the GI50 was 0.625 µM (active) in the assay with LOX IMVI and 0.15 µM (active) in the assay with OVCAR-5.
